This assay addresses CDK2 (human) (UniProt P24941). Nature of the assay: Enzyme Assay.
`CC(C(=O)Nc1ncc(SCc2ncc(C(C)(C)C)o2)s1)c1ccc(OCCCC(=O)NO)cc1` (configuration not stated) came in with an IC50 not above 0.1 µM. Take `CC(C)(C)c1cnc(CSc2cnc(NC(=O)c3cccc(/C=C/C(=O)NO)c3)s2)o1`: the IC50 is not above 0.1 µM. The same measure for `CC(C)(C)c1cnc(CSc2cnc(NC(=O)Oc3ccc(OCCCC(=O)NO)cc3)s2)o1`: not above 0.1 µM; for `CNC(=O)CCCCCOc1ccc(CC(=O)Nc2ncc(SCc3ncc(C(C)(C)C)o3)s2)cc1`: not above 0.1 µM; for `CC(C)(C)c1cnc(CSc2cnc(NC(=O)CCCCC(=O)NO)s2)o1`: not above 0.1 µM.

For the compound `CC(C)(C)c1cnc(CSc2cnc(NC(=O)c3ccc(OCCCCC(=O)NO)cc3)s2)o1`, the IC50 is not above 0.1 µM. The same measure for `CC(C)(C)c1cnc(CSc2cnc(NC(=O)C3CCN(CCCCC(=O)NO)CC3)s2)o1`: not above 0.1 µM; for `CC(C)(C)c1cnc(CSc2cnc(NC(=O)Cc3ccc(OCCC(=O)NO)cc3)s2)o1`: not above 0.1 µM.

`CC(C)(C)c1cnc(CSc2cnc(NC(=O)CCCNCCC(=O)NO)s2)o1` displayed an IC50 not above 0.1 µM. The same measure for `CC(C)(C)c1cnc(CSc2cnc(NC(=O)Cc3ccc(OCCCCC(=O)NO)cc3)s2)o1`: not above 0.1 µM; for `CC(C)(C)c1cnc(CSc2cnc(NC(=O)C3CCN(CCCCCCC(=O)NO)CC3)s2)o1`: not above 0.1 µM. The same measure for `CC(C)(C)c1cnc(CSc2cnc(NC(=O)C3CCN(c4ncc(C(=O)NO)cn4)CC3)s2)o1`: not above 0.1 µM. The same measure for `CC(C)(C)c1cnc(CSc2cnc(NC(=O)c3ccc(OCCCCCC(=O)NO)cc3)s2)o1`: not above 0.1 µM; for `CC(C)(C)c1cnc(CSc2cnc(NC(=O)Cc3ccc(OCCCC(=O)NO)cc3)s2)o1`: not above 0.1 µM; for `CC(C)(C)c1cnc(CSc2cnc(NC(=O)C3CCN(CCCC(=O)NO)CC3)s2)o1`: not above 0.1 µM.

In turn, `CC(C)(C)c1cnc(CSc2cnc(NC(=O)C3CCN(CCCCCC(=O)NO)CC3)s2)o1` showed an IC50 not above 0.1 µM. The result for `CC(C)(C)c1cnc(CSc2cnc(NC(=O)CCCNCCCCCCC(=O)NO)s2)o1` reads not above 0.1 µM. On to `CC(C)(C)c1cnc(CSc2cnc(NCC3CCN(c4ncc(C(=O)NO)cn4)CC3)s2)o1`, for which the IC50 is not above 0.1 µM. Compound `CC(C)(C)c1cnc(CSc2cnc(NC(=O)Nc3ccc(OCCCC(=O)NO)cc3)s2)o1` came in with an IC50 not above 0.1 µM.

Compound `CC(C)(C)c1cnc(CSc2cnc(NC(=O)c3ccc(OCCCCCCC(=O)NO)cc3)s2)o1` returned an IC50 not above 0.1 µM. Turning to `CC(C)(C)c1cnc(CSc2cnc(NC(=O)CCCCCCC(=O)NO)s2)o1`, the IC50 was not above 0.1 µM. The same measure for `CC(C)(C)c1cnc(CSc2cnc(NC(=O)c3ccc(OCCCC(=O)NO)cc3)s2)o1`: not above 0.1 µM; for `CC(C)(C)c1cnc(CSc2cnc(NC(=O)CCCC(=O)NO)s2)o1`: not above 0.1 µM. The result for `CC(C)(C)c1cnc(CSc2cnc(NC(=O)c3ccc(/C=C/C(=O)NO)cc3)s2)o1` reads not above 0.1 µM; that for `CC(Sc1cnc(NC(=O)Cc2ccc(OCCCC(=O)NO)cc2)s1)c1ncc(C(C)(C)C)o1` (configuration not stated), not above 0.1 µM. The result for `CC(C)(C)c1cnc(CSc2cnc(NC(=O)C(C)(C)c3ccc(OCCCC(=O)NO)cc3)s2)o1` reads not above 0.1 µM; that for `CC(C)c1cnc(CSc2cnc(NC(=O)Cc3ccc(OCCCCCCC(=O)NO)cc3)s2)o1`, not above 0.1 µM.

The term IC50 denotes the concentration at which inhibition is half-maximal. Lower therefore signals greater potency.

The record behind these values is the Kinase Knowledgebase extract (Sharma et al. 2016).
